Measurements taken from PubChem BioAssay (NCI).
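In this assay, cells in 96-well plates receive the compound at five concentrations for 48 hours. Endpoints are linearly interpolated between the surrounding concentrations. The concentration for 50% growth inhibition is given as GI50. TGI: concentration producing complete growth inhibition.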

How the values were obtained:
Assay in all cases: NCI-60 cell line screen, 48 h
SF-295 CNS = tested on: SF-295 CNS
HCT-15 colon = tested on: HCT-15 colon
ACHN renal = tested on: ACHN renal
OVCAR-5 ovarian = tested on: OVCAR-5 ovarian
M14 melanoma = tested on: M14 melanoma
NCI-H23 lung = tested on: NCI-H23 lung
NCI-H460 lung = tested on: NCI-H460 lung
SNB-75 CNS = tested on: SNB-75 CNS
HCC-2998 colon = tested on: HCC-2998 colon
K-562 leukemia = tested on: K-562 leukemia

SMILES	GI50 (SF-295 CNS)	TGI (SF-295 CNS)	GI50 (HCT-15 colon)	TGI (HCT-15 colon)	TGI (ACHN renal)	GI50 (OVCAR-5 ovarian)	TGI (OVCAR-5 ovarian)	GI50 (M14 melanoma)	TGI (M14 melanoma)	GI50 (NCI-H23 lung)	GI50 (NCI-H460 lung)	TGI (NCI-H460 lung)	TGI (SNB-75 CNS)	TGI (HCC-2998 colon)	TGI (NCI-H23 lung)	TGI (K-562 leukemia)	GI50 (SNB-75 CNS)	GI50 (ACHN renal)	GI50 (HCC-2998 colon)	GI50 (K-562 leukemia)
COc1ccc(C2c3cc4c(c(OC)c3CC3OCC(=O)C32)OCO4)cc1OC (stereo not given)	< 0.01 µM	< 0.01 µM	< 0.01 µM	> 100 µM	71.7 µM	> 100 µM	> 100 µM	< 0.01 µM	> 100 µM	< 0.01 µM	< 0.01 µM	14.3 µM								
CC[C@@]1(OC(=O)C(N)CCC(=O)O)C(=O)OCc2c1cc1n(c2=O)Cc2cc3ccccc3nc2-1 (stereo not given in full)		0.446 µM		> 100 µM	0.561 µM		8.09 µM		1.2 µM				1.35 µM	3.02 µM	0.389 µM	> 100 µM				
NC(Cn1ccc(=O)c(O)c1)C(=O)O (stereo not given)		> 100 µM		> 100 µM	> 100 µM		> 100 µM		> 100 µM			> 100 µM		> 100 µM	> 100 µM					
CS(=O)/C(C#N)=C\C=C\c1cccc(Cl)c1 (stereo not given)	3.05 µM	10.7 µM	1.11 µM	4.04 µM	10.4 µM			2.57 µM	11.2 µM	1.63 µM	2.41 µM	11.2 µM	37.4 µM	3.3 µM	4.96 µM	> 100 µM	7.11 µM	2.78 µM	1.8 µM	2.51 µM
Cc1cc(NS(=O)(=O)c2ccc(NC(=O)COc3ccc(-c4cc5ccccc5[nH]4)cc3)cc2)no1	1.94 µM	4.91 µM	2.32 µM	7.35 µM	6.9 µM	2.26 µM	5.68 µM	1.71 µM	4.32 µM	1.91 µM			4.68 µM	4.94 µM	5 µM	> 100 µM	1.5 µM	2.44 µM	2.07 µM	2.06 µM
COC(=O)[C@H]1CC(=O)C=C2CCCC21 (stereo not given in full)		> 100 µM		> 100 µM					> 100 µM			> 100 µM	> 100 µM	> 100 µM	> 100 µM	> 100 µM				
O=S(=O)(CC(O)C(Cl)(Cl)Cl)NNc1ccccc1 (stereo not given)		> 100 µM		> 100 µM	> 100 µM		> 100 µM		> 100 µM			> 100 µM	> 100 µM		> 100 µM	> 100 µM				
CC1(C)C(=O)CCC(=O)C(C)(C)C2=CC=C(O2)C(C)(C)C(=O)CCC(=O)C(C)(C)C2=CC=C1O2		> 100 µM		> 100 µM	> 100 µM		> 100 µM					> 100 µM		> 100 µM	> 100 µM	> 100 µM				
Nc1nc2c(c(=O)[nH]1)N=C(COP(=O)(O)OP(=O)(O)O)CN2		> 100 µM		> 100 µM	> 100 µM		> 100 µM		> 100 µM				> 100 µM	> 100 µM	> 100 µM	> 100 µM				
COc1cc(-c2nccc3[nH]c(-c4cccc5[nH]ccc45)nc23)cc(OC)c1OC			< 0.01 µM	12 µM	11.6 µM	3.89 µM	27.6 µM	< 0.01 µM	10.1 µM	< 0.01 µM	< 0.01 µM	1.11 µM	16.5 µM	2.28 µM	19.1 µM		< 0.01 µM	< 0.01 µM	< 0.01 µM	
